Test results reported in patent US9035071B2, “Compounds acting at multiple prostaglandin receptors giving a general anti-inflammatory response” (Allergan, Inc., priority 2011, dated 2015).

What was measured:
Format in all cases: cell-based
[1] = target: T1, human recombinant prostanoid EP2 receptor (Homo sapiens, UniProt P43116); assay: FLIPR Ca2+ signaling, PG antagonist activity, EP2; settings: antagonism of standard agonist PGE2, HEK-293 EBNA stable cells with chimeric Gqs
T1 construct: expressed in transfected cells; co-transfected with chimeric Gqs-HA
T1 sequence (P43116 whole entry): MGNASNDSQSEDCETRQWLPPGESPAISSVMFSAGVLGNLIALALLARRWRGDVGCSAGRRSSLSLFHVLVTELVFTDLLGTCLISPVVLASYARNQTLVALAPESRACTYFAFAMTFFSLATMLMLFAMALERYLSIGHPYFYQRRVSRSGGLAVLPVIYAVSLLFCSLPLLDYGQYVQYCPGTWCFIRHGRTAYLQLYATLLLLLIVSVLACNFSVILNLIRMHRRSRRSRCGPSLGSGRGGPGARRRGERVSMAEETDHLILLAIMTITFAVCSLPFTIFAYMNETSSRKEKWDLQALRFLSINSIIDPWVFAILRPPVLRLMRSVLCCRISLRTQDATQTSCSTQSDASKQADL
Procedure: (§1) The above compounds were tested for PG antagonist activity as follows using human recombinant prostanoid receptor (DP1, EP1-4, FP, IP and TP) stable cell lines:
(§2) In order to measure the response of Gs and Gi coupled prostanoid receptors as a Ca^2+ signal, chimeric G protein cDNAs were used. Stable cell lines over-expressing human prostanoid DP1, EP1-4, FP, IP, and TP receptors were established as follows:
(§3) Briefly, human prostanoid DP1, EP2, and EP4 receptor cDNAs were co-transfected with chimeric Gqs cDNA containing a haemagglutanin (HA) epitope; human prostanoid EP3 receptors were co-transfected with chimeric Gqi-HA; human EP1, FP, IP, and TP receptor cDNAs were expressed with no exogenous G-proteins. Gqs and Gqi chimeric cDNAs (Molecular Devices, Sunnyvale, Calif., U.S.A.), as well as cDNAs of prostanoid receptors, were cloned into a pCEP4 vector with a hygromycin B selection marker. Transfection into HEK-293 EBNA (Epstein-Barr virus nuclear antigen) cells was achieved by the FuGENE 6 transfection Reagent (Roche Applied Science, Indianapolis, Ind., USA). Stable transfectants were selected according to hygromycin resistance. Because Gqs and Gqi contained an HA epitope, G-protein expression was detected by Western blotting analysis using anti-mouse HA monoclonal antibody and horseradish peroxidase (HRP)-conjugated secondary antibody, while functional expression of prostanoid receptors was detected by FLIPR screening (Matias et al., 2004). These stable cell lines were validated using previously published antagonists at 10 μM against serial dilutions of standard agonists by FLIPR functional assays for Ca^2− Signaling (as described below).
(§4) Ca^2+ signaling studies were performed using a FLIPR TETRA system (Molecular Devices, Sunnyvale, Calif., USA) in the 384-format. This is a high-throughput instrument for cell-based assays to monitor Ca^2+ signaling associated with GPCRs and ion channels. Cells were seeded at a density of 5×10^4 cells/well in BioCoat poly-D-lysine coated, black wall, clear bottom 384-well plates (BD Biosciences, Franklin lakes, N.J., USA) and allowed to attach overnight in an incubator at 37° C. The cells were then washed twice with HBSS-HEPES buffer (Hanks' balanced salt solution without bicarbonate and phenol red, 20 mM HEPES, pH 7.4) using an ELx405 Select CW Microplate Washer (BioTek, Winooski, Vt., USA). After 60 min of dye-loading in the dark using the Ca^2+-sensitive dye Fluo-4AM (Invitrogen, Carlsbad, Calif., USA), at a final concentration of 2×10^−6M, the plates were washed 4 times with HBSS-HEPES buffer to remove excess dye and leaving 50 μl of buffer in each well. The plates were then placed in the FLIPR TETRA instrument and allowed to equilibrate at 37° C. AGN-211377 was added in a 25 μl volume to each well to give final concentrations of 0.1 μM, 0.3 μM, 1 μM, 3 μM, 10 μM, and 30 μM; or 0.067 μM, 0.1 μM, 0.2 μM, 0.3 μM, 0.67 μM, and 1 μM for cells over-expressing TP receptors. After 4.5 minutes, a 7-point serial dilution of the standard agonist for the corresponding receptor, in a 25 μl volume was injected at the final concentrations from 10^−11M to 10^−5M in 10-fold serial dilution increments for cells expressing human recombinant DP1, EP1, EP2, EP3, EP4, FP, and IP receptors. The dose range for the standard agonist for human recombinant TP receptors was from 10^−12M to 10^−6M. HBSS-HEPES buffer was used as the negative control for the standard agonists. Cells were excited with LED (light emitting diode) excitation at 470-495 nm and emission was measured through an emission filter at 515-575 nm. Assay plates were read for 3.5 minutes using the FLIPR^TETRA. The peak increase in fluorescence intensity was recorded for each well. On each plate, negative controls, dose response of positive controls, and co-treatments of antagonist-agonist for each dose were in triplicates. Standard agonists were as follows: DP=BW 245C, EP1-EP4=PGE2, FP=17-phenyl-PGF2α, IP=Cicaprost, and TP=U-46619. […]

[2] = target: T2, human recombinant prostanoid IP receptor (Homo sapiens, UniProt P43119); assay: FLIPR Ca2+ signaling, PG antagonist activity, IP; settings: antagonism of standard agonist Cicaprost, HEK-293 EBNA stable cells
T2 construct: expressed in transfected cells
T2 sequence (P43119 whole entry): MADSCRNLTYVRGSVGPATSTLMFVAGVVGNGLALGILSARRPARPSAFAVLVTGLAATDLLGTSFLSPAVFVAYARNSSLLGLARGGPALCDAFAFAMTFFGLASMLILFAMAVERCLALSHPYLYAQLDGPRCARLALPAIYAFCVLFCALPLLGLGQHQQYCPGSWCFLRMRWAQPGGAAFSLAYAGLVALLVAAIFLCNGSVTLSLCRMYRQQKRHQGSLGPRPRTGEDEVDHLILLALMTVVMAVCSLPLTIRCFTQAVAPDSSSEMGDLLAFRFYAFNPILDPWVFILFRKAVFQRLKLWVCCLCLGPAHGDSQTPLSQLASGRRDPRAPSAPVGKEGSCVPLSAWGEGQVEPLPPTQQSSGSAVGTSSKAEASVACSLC
Procedure: as §1, §2, §3, §4

[3] = target: T3, human recombinant prostanoid EP1 receptor (Homo sapiens, UniProt P34995); assay: FLIPR Ca2+ signaling, PG antagonist activity, EP1; settings: antagonism of standard agonist PGE2, HEK-293 EBNA stable cells
T3 construct: expressed in transfected cells
T3 sequence (P34995 1-402): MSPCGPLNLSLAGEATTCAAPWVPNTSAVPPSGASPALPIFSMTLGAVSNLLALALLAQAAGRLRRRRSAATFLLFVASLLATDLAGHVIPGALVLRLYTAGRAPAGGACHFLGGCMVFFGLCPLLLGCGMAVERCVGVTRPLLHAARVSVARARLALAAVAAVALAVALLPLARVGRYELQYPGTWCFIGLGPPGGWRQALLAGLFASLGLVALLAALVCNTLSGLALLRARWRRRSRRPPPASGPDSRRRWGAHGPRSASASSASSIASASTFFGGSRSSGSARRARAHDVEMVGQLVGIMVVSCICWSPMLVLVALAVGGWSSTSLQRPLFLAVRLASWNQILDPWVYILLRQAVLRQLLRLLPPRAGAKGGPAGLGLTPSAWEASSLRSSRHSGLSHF
Procedure: as §1, §2, §3, §4

[4] = target: T4, human recombinant prostanoid EP3 receptor (Homo sapiens, UniProt P43115); assay: FLIPR Ca2+ signaling, PG antagonist activity, EP3; settings: antagonism of standard agonist PGE2, HEK-293 EBNA stable cells with chimeric Gqi
T4 construct: expressed in transfected cells; co-transfected with chimeric Gqi-HA
T4 sequence (P43115 1-390): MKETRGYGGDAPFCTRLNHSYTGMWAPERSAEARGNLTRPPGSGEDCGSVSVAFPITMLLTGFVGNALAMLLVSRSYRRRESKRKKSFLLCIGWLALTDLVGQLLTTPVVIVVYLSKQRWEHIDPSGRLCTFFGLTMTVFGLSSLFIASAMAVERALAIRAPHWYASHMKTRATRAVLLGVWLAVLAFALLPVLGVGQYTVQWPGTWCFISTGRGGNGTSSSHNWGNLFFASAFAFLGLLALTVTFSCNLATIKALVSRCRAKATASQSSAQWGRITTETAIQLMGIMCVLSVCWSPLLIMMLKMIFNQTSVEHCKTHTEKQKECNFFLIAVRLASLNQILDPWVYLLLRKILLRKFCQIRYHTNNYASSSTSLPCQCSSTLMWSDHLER
Procedure: as §1, §2, §3, §4

[5] = target: T5, human recombinant prostanoid EP4 receptor (Homo sapiens, UniProt P35408); assay: FLIPR Ca2+ signaling, PG antagonist activity, EP4; settings: antagonism of standard agonist PGE2, HEK-293 EBNA stable cells with chimeric Gqs
T5 construct: expressed in transfected cells; co-transfected with chimeric Gqs-HA
T5 sequence (P35408 whole entry): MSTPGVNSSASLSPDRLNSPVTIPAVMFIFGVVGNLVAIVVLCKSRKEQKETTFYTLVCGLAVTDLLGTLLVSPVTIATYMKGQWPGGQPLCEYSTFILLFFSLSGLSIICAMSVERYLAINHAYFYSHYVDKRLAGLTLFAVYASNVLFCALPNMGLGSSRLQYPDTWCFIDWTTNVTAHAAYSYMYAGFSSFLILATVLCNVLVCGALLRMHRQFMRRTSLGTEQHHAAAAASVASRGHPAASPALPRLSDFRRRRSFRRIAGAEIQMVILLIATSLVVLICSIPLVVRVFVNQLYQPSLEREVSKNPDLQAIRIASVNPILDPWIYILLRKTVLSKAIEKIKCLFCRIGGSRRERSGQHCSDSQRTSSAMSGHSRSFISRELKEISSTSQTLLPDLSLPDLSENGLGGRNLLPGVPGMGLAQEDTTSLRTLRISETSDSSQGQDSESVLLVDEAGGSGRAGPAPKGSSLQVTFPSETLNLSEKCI
Procedure: as §1, §2, §3, §4

SMILES | Kb [1] | Kb [2] | Kb [3] | Kb [4] | Kb [5]
CCC(CC)COc1ccc(Br)cc1Cn1ncc(CC(=O)O)c1C [Example 1, {1-[5-bromo-2-(2-ethyl-butoxy)-benzyl]-5-methyl-1H-pyrazol-4-yl}-acetic acid] | ≥ 10 µM | 4.8 µM | 0.17 µM | ≥ 10 µM | 0.1 µM
CCC(CC)COc1ccc(Br)cc1Cn1cc(C(=O)O)c(C)n1 [Example 3] | ≥ 10 µM | 1.4 µM | 0.03 µM | ≥ 10 µM | 1.3 µM
Cc1c(C(=O)O)cnn1Cc1cc(Cl)ccc1OCC(C)C [Example 11, 1-(5-chloro-2-isobutoxy-benzyl)-5-methyl-1-pyrazole-4-carboxylic acid] | ≥ 10 µM | 8.3 µM | 0.03 µM | ≥ 10 µM | 3.3 µM
CCC(CC)COc1ccc(C(F)(F)F)cc1Cn1ncc(C(=O)O)c1C [Example 8, 1-[2-(2-ethyl-butoxy)-5-trifluoromethyl-benzyl]-5-methyl-1H-pyrazole-4-carboxylic acid] | ≥ 10 µM | ≥ 10 µM | 0.04 µM | ≥ 10 µM | 1.6 µM
CCCc1c(C(=O)O)cnn1Cc1cc(Cl)ccc1OCC(CC)CC [Example 7, 1-[5-chloro-2-(2-ethyl-butoxy)-benzyl]-5-propyl-1H-pyrazole-4-carboxylic acid] | ≥ 10 µM | 1.8 µM | 0.64 µM | ≥ 10 µM | 3.3 µM
CCC(CC)COc1ccc(Br)cc1Cn1ncc(C(=O)O)c1N [Example 16, 5-amino-1-[5-bromo-2-(2-ethyl-butoxy)-benzyl]-1H-pyrazole-4-carboxylic acid] | ≥ 10 µM | 5.1 µM | 0.06 µM | ≥ 10 µM | 0.3 µM
CCC(CC)COc1ccc(OC(F)(F)F)cc1Cn1ncc(C(=O)O)c1C [Example 15, 1-[2-(2-ethyl-butoxy)-5-trifluoromethoxy-benzyl]-5-methyl-1H-pyrazole-4-carboxylic acid] | ≥ 10 µM | ≥ 10 µM | 0.045 µM | ≥ 10 µM | 1.5 µM
Cc1c(C(=O)O)cnn1Cc1cc(Br)ccc1OCC(C)(C)C [Example 14, 1-[5-bromo-2-(2,2-dimethyl-propoxy)-benzyl]-5-methyl-1H-pyrazole-4-carboxylic acid] | ≥ 10 µM | ≥ 10 µM | 0.03 µM | ≥ 10 µM | 1.3 µM
CCC(CC)COc1ccc(Br)cc1Cn1ncc(C(=O)O)c1C [Example 2, 1-[5-bromo-2-(2-ethyl-butoxy)-benzyl]-5-methyl-1H-pyrazole-4-carboxylic acid] | ≥ 10 µM | 2.4 µM | 0.033 µM | 6.1 µM | 0.38 µM
Cc1c(C(=O)O)cnn1Cc1cc(Br)ccc1OCC(C)C [Example 13, 1-(5-bromo-2-isobutoxy-benzyl)-5-methyl-1H-pyrazole-4-carboxylic acid] | ≥ 10 µM | 7.7 µM | 0.03 µM | ≥ 10 µM | 2.1 µM
CCC(CC)COc1ccc(Cl)cc1Cn1nc(C)c(C(=O)O)c1C [Example 5, 1-[5-chloro-2-(2-ethyl-butoxy)-benzyl]-3,5-dimethyl-1H-pyrazole-4-carboxylic acid] | ≥ 10 µM | 0.6 µM | 0.02 µM | ≥ 10 µM | 0.86 µM
CCCc1nn(Cc2cc(Cl)ccc2OCC(CC)CC)cc1C(=O)O [Example 6, 1-[5-chloro-2-(2-ethyl-butoxy)-benzyl]-3-propyl-1H-pyrazole-4-carboxylic acid] | 8.6 µM | ≥ 10 µM | 1.5 µM | ≥ 10 µM | 4.9 µM
Cc1c(C(=O)O)cnn1Cc1cc(Cl)ccc1OCC1CCCC1 [Example 12, 1-(5-chloro-2-cyclopentylmethoxy-benzyl)-5-methyl-1H-pyrazole-4-carboxylic acid] | ≥ 10 µM | 2.65 µM | 0.03 µM | ≥ 10 µM | 0.6 µM
CCC(CC)COc1ccc(C(F)(F)F)cc1Cn1cc(C(=O)O)c(C)n1 [Example 9, 1-[2-(2-ethyl-butoxy)-5-trifluoromethyl-benzyl]-3-methyl-1H-pyrazole-4-carboxylic acid] | ≥ 10 µM | ≥ 10 µM | 0.44 µM | ≥ 10 µM | ≥ 10 µM
CCC(CC)COc1ccc(Cl)cc1Cn1cc(C(=O)O)cn1 [Example 4, 1-[5-chloro-2-(2-ethyl-butoxy)-benzyl]-1H-pyrazole-4-carboxylic acid] | ≥ 10 µM | 3.1 µM | 0.14 µM | ≥ 10 µM | 4.8 µM
CCC(CC)COc1ccc(Cl)cc1Cn1ncc(C(=O)O)c1C [Example 10, 1-[5-chloro-2-(2-ethyl-butoxy)-benzyl]-5-methyl-1H-pyrazole-4-carboxylic acid] | ≥ 10 µM | 1.3 µM | 0.05 µM | 3.9 µM | 0.5 µM
